Assay results from PubChem BioAssay AID2060614 (Molecular Pharmacology Branch, DTP, NCI, 2025).

System: 598228-144-R-J1-PDC complex spheroids, viability
Assay: Anticancer human tumor 598228-144-R-J1-PDC patient-derived serous endometrial adenocarcinoma cell line growth inhibition [CLK]
Conditions: for IC50: curve of first compound; for viability, T/C: stronger effect = lower value
Description: A high-throughput screen of multi-cell type tumor spheroids was designed to identify active combinations of […] and targeted small molecules. Complex spheroids include a stromal component modeled by human endothelial cells (HUVEC) and fibroblasts modeled by human mesenchymal stem cells (MSCs). The concentration ranges selected for each drug and investigational agent were based upon clinically achievable concentrations if the clinical Cmax of the agent was known.
Compounds. The drugs and investigational agents: cirtuvivint (SM08502; NSC835563), CC-671 (NSC850746), vemurafenib (NSC761431), tapotoclax (NSC804041), sotorasib (NSC818433), adagrasib (NSC831453), MRTX-1133 (NSC836407), BAY2416964 (NSC825713), copanlisib (NSC816437), inavolisib (NSC800729), abemaciclib (NSC768073), osimertinib (NSC779217), entinostat (NSC756642), eltanexor (KPT-8602, NSC794443), venetoclax (NSC766270), ceralasertib (NSC777638), bortezomib (NSC756655), olaparib (NSC753686), talazoparib (NSC767125), alisertib (NSC759677), peposertib (NSC802822), gemcitabine (NSC613327), 5-fluorouracil (NSC19893), SN-38 (NSC673596), oxaliplatin (NSC266046), paclitaxel (NSC125973), and doxorubicin (NSC123127), were obtained from the National Cancer Institute (NCI) Developmental Therapeutics Program Chemical Repository. The FDA-approved anticancer drug set is available from the Developmental Therapeutics Program at https://dtp.cancer.gov/organization/dscb/obtaining/available plates.htm. […] The stock solutions were prepared in dimethyl sulfoxide (DMSO, Sigma-Aldrich, St. Louis, MO, cat. D2650), except for the platinum complexes which were prepared in saline (Quality Biological, Gaithersburg, MD, cat. 114-055-101), at 800-fold the tested concentration and stored at -70 degrees C prior to their use. All drugs and investigational agents were tested over a range starting from a high concentration at or near the clinical Cmax and decreasing in half-log increments. If the clinical Cmax for an agent had not been determined, the highest concentration tested was 10 microM.
Cell Culture. All cells were maintained in an incubator at 37 degrees C and 5% CO2 with 95% humidity. The PDC lines were cultured according to standard operating procedures established by the NCI PDMR. Briefly, all PDCs were thawed and cultured in Matrigel-coated flasks prepared with a working solution of 1X Ham's F-12 nutrient mix, without supplementation (Invitrogen, Waltham, MA, cat. 11765054), 100 U/mL penicillin-streptomycin (Invitrogen, cat. 15140122), and 2.5% Matrigel (Corning Inc., Corning, NY, cat. 354248) for the first three passages. The 947758-054-R-J2-PDC line was cultured in 6B/Colon 1A media, which includes advanced DMEM/F-12 (Thermo Fisher Scientific, cat. 12634028), 10 mM HEPES (Thermo Fisher Scientific, cat. 15630080), 1X GlutaMAX supplement (Thermo Fisher Scientific, cat. 35050061), 0.1 mg/mL primocin (InvivoGen, cat. ant-pm-2), 10% defined fetal bovine serum, heat inactivated (HyClone Laboratories Inc., cat. SH30070.03HI), 1.25 mM N-Acetyl-L-cysteine (Sigma-Aldrich, cat. A9165), 10 mM nicotinamide (Sigma-Aldrich, cat. N0636), 1X B-27 supplement (Thermo Fisher Scientific, cat. 17504044), 1X N-2 supplement (Thermo Fisher Scientific, cat. 17502048), and 10 microM Y-27632 dihydrochloride (Tocris Bioscience, cat. 1254). The 876862-298-R-J1-PDC was cultured in 6E media, which includes all 6B/Colon 1A media components plus 50% L-WRN conditioned media (ATCC, cat. CRL-3276), 50 ng/mL recombinant human EGF recombinant protein (hEGF; Thermo Fisher Scientific, cat. PHG0311), 10 ng/mL recombinant human fibroblast growth factor 10 (hGFG-10; PeproTech, cat. 100-26), 1 ng/mL recombinant human fibroblast growth factor 2 (hFGF-2; PeproTech, cat. 100-18B), and 1 µM prostaglandin E2 (PGE2; Tocris, cat. 2296). The 227483-062-R1-J1-PDC line was cultured in Panc media, containing all 6E components except hFGF-2, with the addition of 500 nM SB-431542 (Selleckchem, cat. S1067) and 10 nM gastrin (Tocris, cat. 3006). […]

[1] = second compound 0.0316 µM, first compound 0.0316 µM
[2] = second compound 0.0316 µM, first compound 0.1 µM
[3] = second compound 0.0316 µM, first compound 0.316 µM
[4] = second compound 0.0316 µM, first compound 1 µM
[5] = second compound 0.0316 µM, first compound 3.16 µM
[6] = second compound 0.0316 µM, first compound 10 µM
[7] = second compound 0.1 µM, first compound 0.0316 µM
[8] = second compound 0.1 µM, first compound 0.1 µM
[9] = second compound 0.1 µM, first compound 0.316 µM
[10] = second compound 0.1 µM, first compound 1 µM
[11] = second compound 0.1 µM, first compound 3.16 µM
[12] = second compound 0.1 µM, first compound 10 µM
[13] = second compound 0.316 µM, first compound 0.0316 µM
[14] = second compound 0.316 µM, first compound 0.1 µM
[15] = second compound 0.316 µM, first compound 0.316 µM
[16] = second compound 0.316 µM, first compound 1 µM
[17] = second compound 0.316 µM, first compound 3.16 µM
[18] = second compound 0.316 µM, first compound 10 µM
[19] = second compound 1 µM, first compound 0.0316 µM
[20] = second compound 1 µM, first compound 0.1 µM
[21] = second compound 1 µM, first compound 0.316 µM
[22] = second compound 1 µM, first compound 1 µM
[23] = second compound 1 µM, first compound 3.16 µM
[24] = second compound 1 µM, first compound 10 µM
[25] = second compound 3.16 µM, first compound 0.0316 µM
[26] = second compound 3.16 µM, first compound 0.1 µM
[27] = second compound 3.16 µM, first compound 0.316 µM
[28] = second compound 3.16 µM, first compound 1 µM
[29] = second compound 3.16 µM, first compound 3.16 µM
[30] = second compound 3.16 µM, first compound 10 µM
[31] = second compound 10 µM, first compound 0.0316 µM
[32] = second compound 10 µM, first compound 0.1 µM
[33] = second compound 10 µM, first compound 0.316 µM
[34] = second compound 10 µM, first compound 1 µM
[35] = second compound 10 µM, first compound 3.16 µM
[36] = second compound 10 µM, first compound 10 µM
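Also: spheroids exposed to compounds for seven days before readout.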
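For viability, T/C in this document: 100% = DMSO vehicle control wells.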

## C#Cc1c(F)ccc2cc(O)cc(-c3ncc4c(N5CC6CCC(C5)N6)nc(OCC56CCCN5CC(F)C6)nc4c3F)c12 (stereo unspecified) + CN1CCN(c2cc(C(=O)Nc3cc4cc(-c5cnn(C)c5)ccc4cn3)ccn2)CC1
Second compound 0.0316 µM
  IC50: > 10000 nM
Second compound 0.1 µM
  IC50: > 10000 nM
Second compound 0.316 µM
  IC50: < 31.6 nM
Second compound 1 µM
  IC50: < 31.6 nM
Second compound 3.16 µM
  IC50: < 31.6 nM
Second compound 10 µM
  IC50: < 31.6 nM
[1]
  viability, T/C: 132%
[2]
  viability, T/C: 124%
[3]
  viability, T/C: 125%
[4]
  viability, T/C: 135%
[5]
  viability, T/C: 117%
[6]
  viability, T/C: 124%
[7]
  viability, T/C: 133%
[8]
  viability, T/C: 157%
[9]
  viability, T/C: 136%
[10]
  viability, T/C: 124%
[11]
  viability, T/C: 125%
[12]
  viability, T/C: 121%
[13]
  viability, T/C: 17.1%
[14]
  viability, T/C: 13.9%
[15]
  viability, T/C: 16%
[16]
  viability, T/C: 19.5%
[17]
  viability, T/C: 17.8%
[18]
  viability, T/C: 16.2%
[19]
  viability, T/C: 1.68%
[20]
  viability, T/C: 1.68%
[21]
  viability, T/C: 2.02%
[22]
  viability, T/C: 1.73%
[23]
  viability, T/C: 1.51%
[24]
  viability, T/C: 1.49%
[25]
  viability, T/C: 1.98%
[26]
  viability, T/C: 5.99%
[27]
  viability, T/C: 2.15%
[28]
  viability, T/C: 1.76%
[29]
  viability, T/C: 1.24%
[30]
  viability, T/C: 3.29%
[31]
  viability, T/C: 1.05%
[32]
  viability, T/C: 2.3%
[33]
  viability, T/C: 0.88%
[34]
  viability, T/C: 0.94%
[35]
  viability, T/C: 1%
[36]
  viability, T/C: 0.39%

## C=C(F)C(=O)N1CCN(c2nc(OCC3CCCN3C)nc3c2CCN(c2cccc4cccc(Cl)c24)C3)CC1CC#N (stereo unspecified) + CN1CCN(c2cc(C(=O)Nc3cc4cc(-c5cnn(C)c5)ccc4cn3)ccn2)CC1
Second compound 0.0316 µM
  IC50: 5380 nM
Second compound 0.1 µM
  IC50: 5530 nM
Second compound 0.316 µM
  IC50: < 31.6 nM
Second compound 1 µM
  IC50: < 31.6 nM
Second compound 3.16 µM
  IC50: < 31.6 nM
Second compound 10 µM
  IC50: < 31.6 nM
[1]
  viability, T/C: 120%
[2]
  viability, T/C: 116%
[3]
  viability, T/C: 123%
[4]
  viability, T/C: 122%
[5]
  viability, T/C: 91.6%
[6]
  viability, T/C: 1.53%
[7]
  viability, T/C: 131%
[8]
  viability, T/C: 123%
[9]
  viability, T/C: 116%
[10]
  viability, T/C: 135%
[11]
  viability, T/C: 95.7%
[12]
  viability, T/C: 1.5%
[13]
  viability, T/C: 17.1%
[14]
  viability, T/C: 20%
[15]
  viability, T/C: 17.4%
[16]
  viability, T/C: 18.9%
[17]
  viability, T/C: 11.9%
[18]
  viability, T/C: 0.14%
[19]
  viability, T/C: 2.31%
[20]
  viability, T/C: 2.11%
[21]
  viability, T/C: 1.77%
[22]
  viability, T/C: 1.1%
[23]
  viability, T/C: 1.88%
[24]
  viability, T/C: 0.11%
[25]
  viability, T/C: 1.76%
[26]
  viability, T/C: 3.04%
[27]
  viability, T/C: 1.61%
[28]
  viability, T/C: 2.21%
[29]
  viability, T/C: 2.11%
[30]
  viability, T/C: 0.17%
[31]
  viability, T/C: 1.18%
[32]
  viability, T/C: 1.1%
[33]
  viability, T/C: 3.38%
[34]
  viability, T/C: 0.85%
[35]
  viability, T/C: 1.73%
[36]
  viability, T/C: 3.8%

## CC(CO)NC(=O)c1cc(-c2ccc(Cl)cc2)nn(-c2cnn(C)c2)c1=O (stereo unspecified) + CN1CCN(c2cc(C(=O)Nc3cc4cc(-c5cnn(C)c5)ccc4cn3)ccn2)CC1
Second compound 0.0316 µM
  IC50: > 10000 nM
Second compound 0.1 µM
  IC50: > 10000 nM
Second compound 0.316 µM
  IC50: < 31.6 nM
Second compound 1 µM
  IC50: < 31.6 nM
Second compound 3.16 µM
  IC50: < 31.6 nM
Second compound 10 µM
  IC50: < 31.6 nM
[1]
  viability, T/C: 129%
[2]
  viability, T/C: 113%
[3]
  viability, T/C: 128%
[4]
  viability, T/C: 120%
[5]
  viability, T/C: 115%
[6]
  viability, T/C: 108%
[7]
  viability, T/C: 130%
[8]
  viability, T/C: 128%
[9]
  viability, T/C: 135%
[10]
  viability, T/C: 125%
[11]
  viability, T/C: 135%
[12]
  viability, T/C: 130%
[13]
  viability, T/C: 21.2%
[14]
  viability, T/C: 17%
[15]
  viability, T/C: 17.9%
[16]
  viability, T/C: 17.5%
[17]
  viability, T/C: 18.3%
[18]
  viability, T/C: 18.2%
[19]
  viability, T/C: 2.7%
[20]
  viability, T/C: 2.28%
[21]
  viability, T/C: 1.94%
[22]
  viability, T/C: 1.84%
[23]
  viability, T/C: 2.34%
[24]
  viability, T/C: 1.94%
[25]
  viability, T/C: 2.22%
[26]
  viability, T/C: 2.04%
[27]
  viability, T/C: 1.99%
[28]
  viability, T/C: 2.65%
[29]
  viability, T/C: 2.74%
[30]
  viability, T/C: 2.69%
[31]
  viability, T/C: 1.3%
[32]
  viability, T/C: 1.36%
[33]
  viability, T/C: 2.02%
[34]
  viability, T/C: 1.53%
[35]
  viability, T/C: 3.43%
[36]
  viability, T/C: 2.58%
